Results reported in patent US5075287A, “Muramyl peptide derivatives and immunoregulating compositions containing them” (priority 1989, dated 1991).
Read-outs that look alike come from different tables or passages of the source.

What was measured:
[1] = system: hepatitis B virus surface antigen (HBs); experiment: Hepatitis-vaccine enhancing activity (adjuvant activity): anti-HBs IgG in mouse serum by ELISA; assay type: in vivo, female CDF1 mice; settings: Experiment 1, 5000-fold dilution
Summary of the method: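 Female CDF1 mice (n=7) given 0.2 ml i.p. of compound in lipid microspheres (1 mg/ml) mixed 1:1 with HBs antigen (50 μg/ml), boosted identically at 3 weeks. Sera from weekly fundus bleeds before and after boost. Anti-HBs IgG measured by ELISA.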

[2] = system: L-1210 mouse leukemia cells; experiment: Activation of macrophages (growth inhibition of tumor cells by intraperitoneal macrophages of treated mice, MTT assay); assay type: cell-based; settings: macrophages taken 3 days after i.p. 0.2 ml of 500 μg/ml, macrophage:L-1210 20:1, 72 hours
[3] = system: influenza HA vaccine (B/Nagasaki/1/87 strain); assay type: in vivo, female CDF1 mice; settings: Experiment 1, 5000-fold dilution
[4] = 1 W after i.p. administration, compound in lipidmicrosphere + HBs
[5] = 4 W (after secondary stimulation at 3 weeks)
[6] = 5 W (after secondary stimulation at 3 weeks)
[7] = 1 W after i.p. administration, compound in lipidmicrosphere + HA vaccine

SMILES	Anti-HBs IgG antibody level in serum (ELISA absorbance at 415 nm) [1, 4] [O.D 415 nm]	Anti-HBs IgG antibody level in serum (ELISA absorbance at 415 nm) ([1]; 2 W) [O.D 415 nm]	Anti-HBs IgG antibody level in serum (ELISA absorbance at 415 nm) ([1]; 3 W) [O.D 415 nm]	Anti-HBs IgG antibody level in serum (ELISA absorbance at 415 nm) [1, 5] [O.D 415 nm]	Anti-HBs IgG antibody level in serum (ELISA absorbance at 415 nm) [1, 6] [O.D 415 nm]	Growth inhibitory ratio of L-1210 mouse leukemia cells [2] [%]	Anti HA serum antigen value (average value ± S.D.) [3, 7] [O.D 415 nm]	Anti HA serum antigen value (average value ± S.D.) ([3]; 2 W) [O.D 415 nm]	Anti HA serum antigen value (average value ± S.D.) ([3]; 3 W) [O.D 415 nm]	Anti HA serum antigen value (average value ± S.D.) [3, 5] [O.D 415 nm]	Anti HA serum antigen value (average value ± S.D.) [3, 6] [O.D 415 nm]
CCCCCCCCCCCCCC(=O)O[C@H](CCCCCCCCCCC)CC(=O)S[C@@H]1O[C@H](COC(=O)CCCCCCCCC)[C@@H](O)[C@H](O[C@H](C)C(=O)N[C@@H](C)C(=O)N[C@H](CCC(=O)OC)C(N)=O)[C@H]1NC(C)=O [Example 14, N-[2-0-{2-Acetamido-2,3-dideoxy-6-0-decanoyl-1-S-((3R)-R-tetradecanoyloxytetradecanoyl)-1-thio-β-D-glucopyranos-3yl}-D-lactoyl]-L-alanyl-D-isoglutamine methylester]	0	0.071 ± 0.000	0.104 ± 0.003	0.784 ± 0.022	0.846 ± 0.024	96.4	0	0.110 ± 0.003	0.186 ± 0.007	0.974 ± 0.006	0.954 ± 0.002
CCCCCCCCCCCCCC(=O)OC[C@H]1O[C@@H](SC(=O)C[C@@H](CCCCCCCCCCC)OC(=O)CCCCCCCCCCCCC)[C@H](NC(C)=O)[C@@H](O[C@H](C)C(=O)N[C@@H](C)C(=O)N[C@H](CCC(=O)OC)C(N)=O)[C@@H]1O [Example 15]	0	0.085 ± 0.002	0.129 ± 0.001	0.788 ± 0.008	0.905 ± 0.020	87.5	0.007 ± 0.000	0.119 ± 0.005	0.218 ± 0.006	1.249 ± 0.013	1.262 ± 0.017
CCCCCCCCCCCCCCCCCC(=O)OC[C@H]1O[C@@H](SC(=O)C[C@@H](CCCCCCCCCCC)OC(=O)CCCCCCCCCCCCC)[C@H](NC(C)=O)[C@@H](O[C@H](C)C(=O)N[C@@H](C)C(=O)N[C@H](CCC(=O)OC)C(N)=O)[C@@H]1O [Example 16, N-[2-0-{2-Acetamido-2,3-dideoxy-6-0-octadecanoyl-1-S-((3R)-3-tetradecanoyloxytetradecanoyl)-1-thio-β-D-glucopyranos-3-yl}-D-lactoyl]-L-alanyl-D-isoglutamine methylester]	0	0.079 ± 0.004	0.103 ± 0.004	0.850 ± 0.008	0.903 ± 0.021	76.3	0.001 ± 0.001	0.145 ± 0.004	0.257 ± 0.010	1.251 ± 0.010	1.262 ± 0.026
